Reference: US4499088A, “Cephem compounds” (Fujisawa Pharmaceutical Co., Ltd., priority 1983, dated 1985)

Legend:
Proteus mirabilis 18 = assay: Minimal inhibitory concentration, two-fold agar-plate dilution method; assay type: cell-based; details: HI-agar, 37° C., 20 hours
Description: (§1) (A) Minimal inhibitory concentration (1) Test Method In vitro antibacterial activity was determined by the two-fold agar-plate dilution method as described below. One loopful of an overnight culture of each test strain in Trypticase-soy broth (10^8 viable cells per ml) was streaked on heart infusion agar (HI-agar) containing graded concentrations of representative test compound, and the minimal inhibitory concentration (MIC) was expressed in terms of μg/ml after incubation at 37° C. for 20 hours.

Proteus vulgaris 2 = assay: as above; assay type: cell-based; details: HI-agar, 37° C., 20 hours
Description: as §1

Urinary excretion = assay type: in vivo; details: rat; rats, oral administration of 100 mg/kg, urine 0 to 6 and 6 to 24 hours, bioassay; read-out: Urinary recovery in 24 hours (%)
Description: Urine of rats was collected with a urine collector at 0 to 6, and 6 to 24 hours after oral administration of 100 mg/kg of the test antibiotic. The antibiotic levels in the urine samples were bioassayed with the standard solution prepared with M/15 phosphate buffer (pH 7.0) and the urinary recovery in 24 hours was calculated.

in vivo = details: rat, po, 100 mg/kg
Description: Rats anesthetized with pentobarbital were fixed in supine position, and a polyethylene cannula was inserted into the bile duct. Bile samples were collected at 0 to 3, 3 to 6, and 6 to 24 hours after oral administration of 100 mg/kg of the test antibiotic. The antibiotic levels in the bile samples were bioassayed with the standard solutions prepared with M/15 phosphate buffer (pH 7.0) and the biliary recovery in 24 hours were calculated.

- MIC (Proteus mirabilis 18): < 0.025 µg/mL
- MIC (Proteus vulgaris 2): < 0.025 µg/mL
- dose excreted at 24 h (Urinary excretion): 20.2%
- dose excreted at 24 h (in vivo): 8.97%
Compound: O=C(O)CO/N=C(\C(=O)NC1C(=O)N2C(C(=O)O)=C(CSc3ccc4nnnn4n3)CSC12)c1cscn1 (stereo not drawn) [Test Compound (1), 7-[2-Carboxymethoxyimino-2-(4-thiazolyl)acetamido]-3-(tetrazolo[1,5-b]pyridazin-6-yl)thiomethyl-3-cephem-4-carboxylic acid (syn isomer)]
